Values quoted from earlier work as cited in PubChem BioAssay AID1259409 (Chemical Carcinogenesis Research Information System (CCRIS), 2018).

Tested on: rodent chemically induced tumor inhibition, incidence and multiplicity
Assay: CCRIS tumor inhibitor studies
Details: Promoter: NONE USED

CC1(S(=O)(=O)O)CC(=O)c2ccccc2C1=O (stereo not given)
tumour outcome (control, treated, inhibition, significance) (Carcinogen: 1,2-DIMETHYLHYDRAZINE, 540-73-8, Dose [Inhibitor]: 0, 20 MG/KG 3/WK FOR 24 WK BEGINNING FIRST WK OF CARCINOGEN TREATMENT (STUDY DURATION: 28 WK), Route [Inhibitor]: GAVAGE, Species: MOUSE, Strain/Sex: ICR/FEMALE, Target Tissue: Type of Lesion: COLON: TUMOR, Dose [Carcinogen]: 20 MG/KG 1/WK FOR 20 WK): 9/13 (69%), 4/13 (31%), 55%, p<0.05
tumour outcome (control, treated, inhibition, significance) (Carcinogen: 1,2-DIMETHYLHYDRAZINE, 540-73-8, Dose [Inhibitor]: 0, 20 MG/KG 3/WK FOR 28 WK BEGINNING FIRST WK OF CARCINOGEN TREATMENT (STUDY DURATION: 28 WK), Route [Inhibitor]: GAVAGE, Species: MOUSE, Strain/Sex: ICR/FEMALE, Target Tissue: Type of Lesion: COLON: TUMOR, Dose [Carcinogen]: 20 MG/KG 1/WK FOR 20 WK): 13/13 (100%), 8/13 (62%), 38%, p<0.05
tumour outcome (control, treated, inhibition, significance) (Carcinogen: 1,2-DIMETHYLHYDRAZINE, 540-73-8, Dose [Inhibitor]: 0, 40 MG/KG 3/WK FOR 24 WK BEGINNING FIRST WK OF CARCINOGEN TREATMENT (STUDY DURATION: 28 WK), Route [Inhibitor]: GAVAGE, Species: MOUSE, Strain/Sex: ICR/FEMALE, Target Tissue: Type of Lesion: COLON: TUMOR, Dose [Carcinogen]: 20 MG/KG 1/WK FOR 20 WK): 9/13 (69%), 4/13 (31%), 55%, p<0.05
tumour outcome (control, treated, inhibition, significance) (Carcinogen: 1,2-DIMETHYLHYDRAZINE, 540-73-8, Dose [Inhibitor]: 0, 40 MG/KG 3/WK FOR 28 WK BEGINNING FIRST WK OF CARCINOGEN TREATMENT (STUDY DURATION: 28 WK), Route [Inhibitor]: GAVAGE, Species: MOUSE, Strain/Sex: ICR/FEMALE, Target Tissue: Type of Lesion: COLON: TUMOR, Dose [Carcinogen]: 20 MG/KG 1/WK FOR 20 WK): 13/13 (100%), 8/13 (62%), 38%, p<0.05

CCCCCCCCCCCCN=C=S
tumour outcome (control, treated, inhibition, significance) (Carcinogen: 4(METHYLNITROSAMINO)-1-(3-PYRIDYL)-1-BUTANONE, 64091-91-4, Dose [Inhibitor]: 0, 1 UMOL IN 0.1 ML CORN OIL ONCE 2 HR PRIOR TO CARCINOGEN DOSE (STUDY DURATION: 16 WK), Route [Inhibitor]: GAVAGE, Species: MOUSE, Strain/Sex: STRAIN-A/FEMALE, Target Tissue: Type of Lesion: LUNG: ADENOMA, Dose [Carcinogen]: 10 UMOL IN 0.1 ML SALINE ONCE): 100%, 35%, 65%, p<0.001
tumour outcome (control, treated, inhibition, significance) (Carcinogen: 4-(METHYLNITROSAMINO)-1-(3-PYRIDYL)-1-BUTANONE, 64091-91-4, Dose [Inhibitor]: 0, 1 UMOL ONCE 2 HR PRIOR TO CARCINOGEN DOSE (STUDY DURATION: 16 WK), Route [Inhibitor]: GAVAGE, Species: MOUSE, Strain/Sex: STRAIN-A/FEMALE, Target Tissue: Type of Lesion: LUNG: ADENOMA, Dose [Carcinogen]: 10 UMOL IN 0.1 ML SALINE ONCE): 100%, 35%, 65%, p<0.05
tumour outcome (control, treated, inhibition, significance) (Carcinogen: 4-(METHYLNITROSAMINO)-1-(3-PYRIDYL)-1-BUTANONE, 64091-91-4, Dose [Inhibitor]: 0, 5 UMOL ONCE 2 HR PRIOR TO CARCINOGEN DOSE (STUDY DURATION: 16 WK), Route [Inhibitor]: GAVAGE, Species: MOUSE, Strain/Sex: STRAIN-A/FEMALE, Target Tissue: Type of Lesion: LUNG: ADENOMA, Dose [Carcinogen]: 10 UMOL IN 0.1 ML SALINE ONCE): 100%, 25%, 75%, p<0.05

Cc1c(C)c(N)c(C)c(C)c1N
outcome (Carcinogen: 7,12-DIMETHYLBENZ[A]ANTHRACENE, 57-97-6, Dose [Inhibitor]: 0.1% IN POWDERED DIET BEGINNING 1 WK POST CARCINOGEN DOSE FOR 51 WK (STUDY DURATION: 52 WK), Route [Inhibitor]: ORAL, Species: RAT, Strain/Sex: SPRAGUE-DAWLEY/FEMALE, Target Tissue: Type of Lesion: EAR DUCT: BENIGN TUMOR, Dose [Carcinogen]: 2.5 MG/100 G BW IN 0.5 ML SESAME OIL ONCE): 7/19 (37%), 5/17 (29%), 20, not calculated
tumour outcome (control, treated, inhibition, significance) (Carcinogen: 7,12-DIMETHYLBENZ[A]ANTHRACENE, 57-97-6, Dose [Inhibitor]: 0.1% IN POWDERED DIET BEGINNING 1 WK POST CARCINOGEN DOSE FOR 51 WK (STUDY DURATION: 52 WK), Route [Inhibitor]: ORAL, Species: RAT, Strain/Sex: SPRAGUE-DAWLEY/FEMALE, Target Tissue: Type of Lesion: MAMMARY GLAND: CARCINOMA, Dose [Carcinogen]: 2.5 MG/100 G BW IN 0.5 ML SESAME OIL ONCE): 6/19 (32%), 6/17 (35%), -12%, not calculated
tumour outcome (control, treated, inhibition, significance) (Carcinogen: 7,12-DIMETHYLBENZ[A]ANTHRACENE, 57-97-6, Dose [Inhibitor]: 0.1% IN POWDERED DIET BEGINNING 1 WK POST CARCINOGEN DOSE FOR 51 WK (STUDY DURATION: 52 WK), Route [Inhibitor]: ORAL, Species: RAT, Strain/Sex: SPRAGUE-DAWLEY/FEMALE, Target Tissue: Type of Lesion: MAMMARY GLAND: FIBROADENOMA, Dose [Carcinogen]: 2.5 MG/100 G BW IN 0.5 ML SESAME OIL ONCE): 15/19 (79%), 4/17 (24%), 71%, p<0.01

O=C1CC[C@@]2(O)[C@H]3Cc4ccc(O)c5c4[C@@]2(CCN3CC2CC2)[C@H]1O5
tumour outcome (control, treated, inhibition, significance) (Carcinogen: 7,12-DIMETHYLBENZ[A]ANTHRACENE, 57-97-6, Dose [Inhibitor]: 0, 75 MG/KG DIET FOR 20 D BEGINNING 10 D PRIOR TO CARCINOGEN DOSE (STUDY DURATION: 130 D), Route [Inhibitor]: ORAL, Species: RAT, Strain/Sex: SPRAGUE-DAWLEY/FEMALE, Target Tissue: Type of Lesion: MAMMARY GLAND: TUMOR, Dose [Carcinogen]: 15 MG IN 0.1 ML OF SESAME OIL ONCE): 100%, 73%, 27%, not significant
tumour outcome (control, treated, inhibition, significance) (Carcinogen: 7,12-DIMETHYLBENZ[A]ANTHRACENE, 57-97-6, Dose [Inhibitor]: 0, 75 MG/KG DIET FOR 109 D BEGINNING 11 D POST CARCINOGEN DOSE (STUDY DURATION: 130 D), Route [Inhibitor]: ORAL, Species: RAT, Strain/Sex: SPRAGUE-DAWLEY/FEMALE, Target Tissue: Type of Lesion: MAMMARY GLAND: TUMOR, Dose [Carcinogen]: 15 MG IN 0.1 ML OF SESAME OIL ONCE): 92%, 36%, 61%, p=0.0024
tumour outcome (control, treated, inhibition, significance) (Carcinogen: 7,12-DIMETHYLBENZ[A]ANTHRACENE, 57-97-6, Dose [Inhibitor]: 0, 75 MG/KG DIET FOR 130 D BEGINNING 10 D PRIOR TO CARCINOGEN DOSE (STUDY DURATION: 130 D), Route [Inhibitor]: ORAL, Species: RAT, Strain/Sex: SPRAGUE-DAWLEY/FEMALE, Target Tissue: Type of Lesion: MAMMARY GLAND: TUMOR, Dose [Carcinogen]: 15 MG IN 0.1 ML OF SESAME OIL ONCE): 83%, 46%, 45%, p=0.053
tumour outcome (control, treated, inhibition, significance) (Carcinogen: DIMETHYLBENZ[A]ANTHRACENE, 57-97-6, Dose [Inhibitor]: 0, 1 MG/KG/D ADMINISTERED TO RESTRAINT-STRESSED RATS BEGINNING 2 DAYS POST CARCINOGEN DOSE AND CONTINUING FOR 18 WK (STU, Route [Inhibitor]: INTRAPERITONEAL, Species: RAT, Strain/Sex: F344/FEMALE, Target Tissue: Type of Lesion: MAMMARY GLAND: TUMOR, Dose [Carcinogen]: 15 MG/ML SESAME OIL ONCE): 32%, 12%, 63%, not calculated
tumour outcome (control, treated, inhibition, significance) (Carcinogen: DIMETHYLBENZ[A]ANTHRACENE, 57-97-6, Dose [Inhibitor]: 0, 1 MG/KG/D BEGINNING 2 DAYS POST CARCINOGEN DOSE AND CONTINUING FOR 18 WK (STUDY DURATION: 18 WK), Route [Inhibitor]: INTRAPERITONEAL, Species: RAT, Strain/Sex: F344/FEMALE, Target Tissue: Type of Lesion: MAMMARY GLAND: TUMOR, Dose [Carcinogen]: 15 MG/ML SESAME OIL ONCE): 27%, 15%, 44%, not calculated
